Here are results for 24 compounds from PubChem BioAssay AID330 (DTP/NCI, 2004).

For this assay, the system named is P388 leukemia ip, CD2F1 mice, survival T/C. The experiment in a line: NCI In Vivo Anticancer Drug Screen. Data for tumor model P388 Leukemia (intraperitoneal) in CD2F1 (CDF1) mice. As to conditions: endpoint: median survival time, higher = longer survival. The gist of the method:
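Mice carrying the transplanted tumor received test compound or vehicle. Survival was recorded in each group, and the value is the treated-group measurement divided by that of the vehicle-treated control group.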

Where [1] appears, read: dose: 50.0 mg/kg/injection, schedule: Q01DX005 (ip), vehicle: saline with Tween-80.
Where [2] appears, read: dose: 100.0 mg/kg/injection, schedule: Q01DX005 (ip), vehicle: saline with Tween-80.
Setting [3] is: dose: 200.0 mg/kg/injection, schedule: Q01DX005 (ip), vehicle: saline with Tween-80.
Where [4] appears, read: dose: 60.0 mg/kg/injection, schedule: Q01DX005 (ip), vehicle: saline with Tween-80.
Setting [5] is: dose: 120.0 mg/kg/injection, schedule: Q01DX005 (ip), vehicle: saline with Tween-80.
Setting [6] is: dose: 240.0 mg/kg/injection, schedule: Q01DX005 (ip), vehicle: saline with Tween-80.
[7] abbreviates: dose: 25.0 mg/kg/injection, schedule: Q01DX009 (ip), vehicle: Klucel (hydroxypropylcellulose) (HPC).
[8] abbreviates: dose: 50.0 mg/kg/injection, schedule: Q01DX009 (ip), vehicle: Klucel (hydroxypropylcellulose) (HPC).
The mark [9] stands for this setting: dose: 100.0 mg/kg/injection, schedule: Q01DX009 (ip), vehicle: Klucel (hydroxypropylcellulose) (HPC).
The mark [10] stands for this setting: dose: 100.0 mg/kg/injection, schedule: Q01DX001 (ip), vehicle: saline with Tween-80.
Setting [11] is: dose: 200.0 mg/kg/injection, schedule: Q01DX009 (ip), vehicle: Klucel (hydroxypropylcellulose) (HPC).
Setting [12] is: dose: 6.25 mg/kg/injection, schedule: Q01DX005 (ip), vehicle: saline with Tween-80.
Where [13] appears, read: dose: 12.5 mg/kg/injection, schedule: Q01DX005 (ip), vehicle: saline with Tween-80.
[14] abbreviates: dose: 25.0 mg/kg/injection, schedule: Q01DX005 (ip), vehicle: saline with Tween-80.

Where “and” joins values, the source holds several entries; their conditions need not be identical. Identical values can stand only once. Toxic doses and inconclusive results are not listed. Peptide text beside a SMILES is read from it.

As for `CC(C)C(NC(=O)C(N)CCCN=C(N)N)C(=O)O` (stereo not drawn) (H-Arg-Val-OH; configuration not given here), the T/C under setting [1] was 91 % of control, the T/C under setting [2] is 100 % of control and the T/C under setting [3] was 100 % of control.
As to `CC(=O)OC(CO)C(OC(C)=O)C(CNc1nc(N)[nH]c(=O)c1[N+](=O)[O-])OC(C)=O` (stereo not given), the T/C was 101 % of control under setting [4], 92 % of control under setting [5] and 92 % of control under setting [6].
For `COc1cc(OC)c(C(=O)O)cc1Cl`, the T/C was 100 % of control (dose: 100.0 mg/kg/injection, schedule: Q04DX003 (ip), vehicle: Klucel (hydroxypropylcellulose) (HPC)); 101 % of control (dose: 200.0 mg/kg/injection, schedule: Q04DX003 (ip), vehicle: Klucel (hydroxypropylcellulose) (HPC)); 100 % of control (dose: 400.0 mg/kg/injection, schedule: Q04DX003 (ip), vehicle: Klucel (hydroxypropylcellulose) (HPC)).
As to `COc1cccc2c1C(=O)c1c(O)c3c(c(O)c1C2=O)C[C@@](O)(C(C)=O)C[C@@H]3OC1CC(N2CCSCC2)C(O)C(C)O1` (stereo not given in full), the T/C (dose: 0.39 mg/kg/injection, schedule: Q04DX003 (ip), vehicle: distilled water + Tween-80) was 118 % of control; the T/C (dose: 0.78 mg/kg/injection, schedule: Q04DX003 (ip), vehicle: distilled water + Tween-80) is 100 % of control; the T/C (dose: 1.56 mg/kg/injection, schedule: Q04DX003 (ip), vehicle: distilled water + Tween-80) was 103 % of control; the T/C (dose: 3.12 mg/kg/injection, schedule: Q04DX003 (ip), vehicle: distilled water + Tween-80) was 113 % of control; the T/C (dose: 6.25 mg/kg/injection, schedule: Q04DX003 (ip), vehicle: distilled water + Tween-80) was 106 % of control; the T/C (dose: 6.25 mg/kg/injection, schedule: Q04DX003 (ip), vehicle: water) is 105 % of control. The T/C is 123 % of control (dose: 12.5 mg/kg/injection, schedule: Q04DX003 (ip), vehicle: distilled water + Tween-80); 113 % of control (dose: 12.5 mg/kg/injection, schedule: Q04DX003 (ip), vehicle: water); 124 % of control (dose: 25.0 mg/kg/injection, schedule: Q04DX003 (ip), vehicle: distilled water + Tween-80); 123 % of control (dose: 25.0 mg/kg/injection, schedule: Q04DX003 (ip), vehicle: water); 169 % of control (dose: 50.0 mg/kg/injection, schedule: Q04DX003 (ip), vehicle: water).
As to `CNc1ccc(F)cc1SSc1cc(F)ccc1NC`, the T/C under setting [7] was 108 % of control, the T/C under setting [8] was 110 % of control and the T/C under setting [9] was 115 % of control.
For the compound `CNC(=O)c1ccccc1C1(O)c2ccccc2CCc2ccccc21`, the T/C was 94 % of control under setting [1], 93 % of control under setting [2] and 90 % of control under setting [3].
As to `CCOC(=O)N1C=CC=C(Br)C1C#N` (stereo not given), the T/C under setting [1] is 114 % of control.
With `COc1cc2c(cc1NC(C)=O)C(=O)CCCC2`, the T/C was 107 % of control (dose: 100.0 mg/kg/injection, schedule: Q01DX009 (ip), vehicle: saline + alcohol); 103 % of control (dose: 200.0 mg/kg/injection, schedule: Q01DX009 (ip), vehicle: saline + alcohol); 110 % of control (dose: 400.0 mg/kg/injection, schedule: Q01DX009 (ip), vehicle: saline + alcohol).
As for `NC(=Nc1ccccc1)SCCCCCCSC(N)=Nc1ccccc1`, the T/C under setting [7] was 100 % of control, the T/C under setting [8] was 102 % of control and the T/C under setting [9] was 100 % of control.
Turning to `c1ccc2oc(C34OC5CC(CC(C5)O3)O4)nc2c1`, the T/C under setting [10] is 101 % of control; the T/C (dose: 200.0 mg/kg/injection, schedule: Q01DX001 (ip), vehicle: saline with Tween-80) was 99 % of control; the T/C (dose: 400.0 mg/kg/injection, schedule: Q01DX001 (ip), vehicle: saline with Tween-80) is 100 % of control.
For the compound `O=C1C=C(Br)C(=O)C(Br)=C1`, the T/C (dose: 1.56 mg/kg/injection, schedule: Q01DX009 (ip), vehicle: distilled water + Tween-80) is 101 % of control; the T/C (dose: 3.13 mg/kg/injection, schedule: Q01DX009 (ip), vehicle: distilled water + Tween-80) is 95 % of control; the T/C (dose: 6.25 mg/kg/injection, schedule: Q01DX009 (ip), vehicle: distilled water + Tween-80) was 100 % of control.
For the compound `NC/C(=N\O)c1ccc2ccccc2c1`, the T/C by setting is: (dose: 60.0 mg/kg/injection, schedule: Q01DX005 (ip), vehicle: Klucel (hydroxypropylcellulose) (HPC)) 100 % of control; (dose: 120.0 mg/kg/injection, schedule: Q01DX005 (ip), vehicle: Klucel (hydroxypropylcellulose) (HPC)) 110 % of control; (dose: 240.0 mg/kg/injection, schedule: Q01DX005 (ip), vehicle: Klucel (hydroxypropylcellulose) (HPC)) 105 % of control.
Consider `CN(C)c1ccc(/C=C/c2cc[n+](C)c(/C=C/c3ccc(N(C)C)cc3)c2)cc1`, for which the T/C was 115 % of control (dose: 0.78 mg/kg/injection, schedule: Q01DX005 (ip), vehicle: saline) and 119 % of control (dose: 1.56 mg/kg/injection, schedule: Q01DX005 (ip), vehicle: saline).
`Nc1nc2ncc(CN(C(=O)CCl)c3ccc(C(=O)NC(CCC(=O)O)C(=O)O)cc3)nc2c(=O)[nH]1` (stereo not given): the T/C runs as follows: under setting [8], 95 % of control; under setting [9], 107 % of control; under setting [11], 108 % of control.
`CO[C@@H]1C2=CC=CC=C[C@H]2n2c(=O)n(-c3ccccc3)c(=O)n21`: the T/C was 102 % of control (dose: 50.0 mg/kg/injection, schedule: Q01DX005 (ip), vehicle: Klucel (hydroxypropylcellulose) (HPC)) and 103 % of control (dose: 100.0 mg/kg/injection, schedule: Q01DX005 (ip), vehicle: Klucel (hydroxypropylcellulose) (HPC)).
Take `CC(C)(OC(=O)NC(Cc1cnc[nH]1)C(=O)O)c1ccc(N=Nc2ccccc2)cc1` (stereo not given): the T/C is, setting by setting: (dose: 50.0 mg/kg/injection, schedule: Q01DX009 (ip), vehicle: saline with Tween-80) 97 % of control; (dose: 100.0 mg/kg/injection, schedule: Q01DX009 (ip), vehicle: saline with Tween-80) 94 % of control; (dose: 200.0 mg/kg/injection, schedule: Q01DX009 (ip), vehicle: saline with Tween-80) 97 % of control.
For `O=C1c2ccccc2NC1c1ccc2ccccc2n1` (stereo not given), the T/C by setting is: under setting [7], 94 % of control; under setting [8], 93 % of control; under setting [9], 86 % of control.
With `O=[N+]([O-])c1ccc(/C=C/C(CCN2CCOCC2)=N/O)cc1`, the T/C is 104 % of control under setting [4], 99 % of control under setting [5] and 103 % of control under setting [6].
Regarding `COC1=CC(=O)c2nc(Cl)ccc2C1=O`, the T/C reads like this: under setting [12], 100 % of control; under setting [13], 100 % of control; under setting [14], 108 % of control and 92 % of control; under setting [1], 100 % of control.
Regarding `FC(F)(F)c1cccc(-n2nnnc2Oc2ccc(-c3ccccc3)cc2)c1`, the T/C is 97 % of control under setting [1], 101 % of control under setting [2] and 90 % of control under setting [3].
Take `CCn1c2ccccc2c2cc(NC(=S)NC(=O)c3cccs3)ccc21`: the T/C is 93 % of control under setting [12]; 86 % of control under setting [13]; 93 % of control under setting [14]; 90 % of control under setting [2]; 92 % of control under setting [3].
Take `COc1ccc(/C(=N\N)C2=NNC3(CCCCC3)NN2)cc1`: the T/C by setting is: under setting [8], 94 % of control; under setting [9], 93 % of control; under setting [11], 96 % of control.
`CCOC(=O)C(Cc1c[nH]c2ccccc12)(NC(C)=O)C(=O)OCC`: the T/C was 100 % of control (dose: 100.0 mg/kg/injection, schedule: Q04DX003 (ip), vehicle: saline with Tween-80); 100 % of control (dose: 200.0 mg/kg/injection, schedule: Q04DX003 (ip), vehicle: saline with Tween-80); 100 % of control (dose: 400.0 mg/kg/injection, schedule: Q04DX003 (ip), vehicle: saline with Tween-80).
Regarding `Cc1cnc2ncn(Cc3c[nH]c(=O)[nH]c3=O)c(=O)c2c1`, the T/C by setting is: (dose: 12.5 mg/kg/injection, schedule: Q01DX001 (ip), vehicle: saline with Tween-80) 110 % of control; (dose: 25.0 mg/kg/injection, schedule: Q01DX001 (ip), vehicle: saline with Tween-80) 107 % of control; (dose: 50.0 mg/kg/injection, schedule: Q01DX001 (ip), vehicle: saline with Tween-80) 104 % of control; under setting [10], 104 % of control.
